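Protocol summary: plate cells (96-well), add compound at 5 concentrations, incubate 48 h, interpolate endpoints linearly. Here, GI50 denotes the concentration required for 50% inhibition of growth. At the TGI there is no net growth.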
Key:
Assay in all cases: inhibition of tumour cell growth, NCI panel, 48 h
[1] = tested on: EKVX NSCLC
[2] = tested on: HOP-62 NSCLC
[3] = tested on: LOX IMVI melanoma
[4] = tested on: NCI-H460 lung
[5] = tested on: SF-295 CNS
[6] = tested on: SK-MEL-5 melanoma
[7] = tested on: SNB-19 CNS
[8] = tested on: SNB-75 CNS
[9] = tested on: U251 CNS
[10] = tested on: UACC-257 melanoma

Row | Structure (SMILES) | GI50 [1] | TGI [1] | GI50 [2] | TGI [2] | GI50 [3] | GI50 [4] | TGI [4] | GI50 [5] | TGI [5] | GI50 [6] | TGI [6] | GI50 [7] | TGI [7] | GI50 [8] | TGI [8] | GI50 [9] | TGI [9] | GI50 [10] | TGI [10] | TGI [3]
1 | Cc1ccc(C(NC(=O)c2ccccc2)c2ccc3cccnc3c2O)cc1 (centres undefined) | 0.357 µM | 53.5 µM | 0.487 µM | > 41.6 µM | 0.15 µM | 0.26 µM | 3.08 µM | 0.351 µM | 14.7 µM | 0.201 µM | 0.439 µM | 0.492 µM | > 100 µM | 0.927 µM | 60 µM | 0.249 µM | 18.4 µM | 0.293 µM | 2.58 µM | 
2 | N#CC1CCCCOCCOCCOCCOCCOCCCCCC1=O (centres undefined) |  | > 100 µM |  | > 100 µM |  |  | > 100 µM |  | > 100 µM |  | > 100 µM |  | > 100 µM |  | > 100 µM |  | > 100 µM |  | > 100 µM | > 100 µM
3 | COc1cc2c(cc1OC)C(Sc1ccc(SC)cc1)c1c(nc(N)c(C#N)c1N)O2 (centres undefined) | 1.78 µM | 3.32 µM | 1.78 µM | 3.26 µM | 1.28 µM | 2.08 µM | 4.49 µM | 1.63 µM | 3.01 µM | 1.69 µM | 3.07 µM | 1.45 µM | 2.8 µM | 1.54 µM | 3.16 µM | 1.37 µM | 2.66 µM | 2.07 µM | 3.51 µM | 2.55 µM
4 | O=[N+]([O-])c1ccc(Cl)c(C2CC(c3cccc4ccccc34)=Nc3ccccc3S2)c1 (centres undefined) |  | > 100 µM |  | > 100 µM |  |  | > 100 µM |  | > 94.1 µM |  | > 31.6 µM |  | > 100 µM |  | 60.5 µM |  | 65.9 µM |  | > 100 µM | 59.2 µM
5 | Clc1ccc(-c2nnc(-c3cccc4ccccc34)o2)cc1Cl |  | > 100 µM |  | > 100 µM |  |  | > 100 µM |  | > 100 µM |  | > 100 µM |  | > 100 µM |  | > 100 µM |  | > 100 µM |  | > 100 µM | > 100 µM
6 | Nc1cc(O)ccc1N=Nc1ccc(-c2nc3ccccc3[nH]2)cc1 | 21 µM | 92.1 µM | > 100 µM | > 100 µM | 7.6 µM | 10.2 µM | 35.8 µM | 16.8 µM | > 100 µM | 38.8 µM | > 100 µM | > 100 µM | > 100 µM | > 100 µM | > 100 µM | 30.3 µM | > 100 µM | 65.3 µM | > 100 µM | 37.1 µM
7 | Cc1ccc(NC(=O)C2C(=O)N(c3ccc(C)c(C)c3)C(=O)/C2=N\NC(N)=O)cc1C (centres undefined) |  | > 100 µM |  | > 100 µM |  |  | > 100 µM |  | > 100 µM |  | > 100 µM |  | > 100 µM |  | > 100 µM |  | > 100 µM |  | > 100 µM | > 100 µM
8 | Nc1nc(N)c(C=Nc2ccc(Br)cc2)c(Nc2ccc(Br)cc2)n1 | 10.5 µM | 24.1 µM | 10.5 µM | 22.5 µM | 3.01 µM | 4.39 µM | 20.1 µM | 11.3 µM | 38.5 µM | 13.5 µM | 26.3 µM | 12.4 µM | 32.4 µM | 5.02 µM | 18.6 µM | 12 µM | 30.1 µM | 14.7 µM | 30.7 µM | 16.4 µM
9 | S=C(Nc1ccc(N=Nc2ccccc2)cc1)SCc1ccccc1 |  | 48.6 µM |  | 41.3 µM |  |  | 39.5 µM |  | 34.4 µM |  | 29.6 µM |  | 39.4 µM |  | 44.2 µM |  | 29.7 µM |  | 33.3 µM | 38.5 µM
10 | Cc1cccc(C(C)C)c1N1C(=O)C(=O)C(c2nc3ccccc3o2)C(=O)C1=O |  | > 100 µM |  | > 100 µM |  |  | > 100 µM |  | > 100 µM |  | > 100 µM |  | > 100 µM |  | > 100 µM |  | > 100 µM |  | > 100 µM | > 100 µM
11 | Cc1cc2cc3ccc(N(C)C)cc3nc2cc1N | 0.273 µM | 3.11 µM | 0.481 µM | 2.45 µM | 0.325 µM | 0.234 µM | 0.68 µM | 0.273 µM | 2.03 µM | 0.767 µM | 2.25 µM | 0.582 µM | 4.42 µM | 1.04 µM | 2.3 µM | 0.312 µM | 1.61 µM | 1.12 µM | 3.04 µM | 5.01 µM
12 | CC(C)N1CCN(Cc2ccc3c(NNC(=O)c4ccccc4)nc4cc(F)ccc4n23)CC1 | 0.172 µM | 6.79 µM | 0.176 µM | 13.7 µM | 0.198 µM | 0.128 µM | 1.4 µM | 0.277 µM | 1.69 µM | 0.921 µM | 3.11 µM | 0.537 µM | 8.07 µM | 0.451 µM | 7.24 µM | 0.296 µM | 2.01 µM | 0.81 µM | 11.9 µM | 1.54 µM
13 | CCCCC(C)C(OC(=O)CC(CC(=O)O)C(=O)O)C(CC(C)CC(O)CCCCC(O)CC(O)C(C)N)OC(=O)CC(CC(=O)O)C(=O)O (centres undefined) |  | > 100 µM |  | > 100 µM |  |  | > 100 µM |  | > 100 µM |  | > 100 µM |  | > 100 µM |  | > 100 µM |  | > 100 µM |  | > 100 µM | > 100 µM
14 | O=S(=O)(O)c1ccc(N=Nc2nc(C(F)(F)F)c(C(F)(F)F)[nH]2)cc1 |  | > 100 µM |  | > 100 µM |  |  | > 100 µM |  | > 100 µM |  | > 100 µM |  | 71.1 µM |  | > 100 µM |  | > 100 µM |  | > 100 µM | 29.2 µM
15 | O=C(O)C1CC2(C1)CC(C(=O)O)C2 (centres undefined) |  | > 100 µM |  | > 100 µM |  |  | > 100 µM |  | > 100 µM |  | > 100 µM |  | > 100 µM |  | > 100 µM |  | > 100 µM |  | > 100 µM | > 100 µM
16 | O=C(O)c1cn(C2CC2)c2cc(N3CCN(C(=O)Nc4nc(-c5ccccc5)cs4)CC3)c(F)cc2c1=O | 3.17 µM | 85.2 µM | 2.67 µM | 82.4 µM | 0.281 µM | 0.445 µM | > 100 µM | 2.13 µM | 9.24 µM | 0.824 µM | 2.87 µM | 1.12 µM | > 100 µM | 1.22 µM | 19.4 µM | 0.474 µM | 14.1 µM | 2.37 µM | 7.58 µM | 1.03 µM
17 | S=c1[nH]nc(Cc2ccccc2)c(=S)[nH]1 |  | > 31.6 µM |  | > 100 µM |  |  | > 93.7 µM |  | > 100 µM |  | > 82.2 µM |  | > 100 µM |  | 89.1 µM |  | > 100 µM |  | > 100 µM | 99.3 µM

— PubChem BioAssay (NCI)
